Experimental data as given in ChEMBL document CHEMBL1201862, “PubChem BioAssay data set” (2004).
Activity calls are given as the source filed them.

Assays:
Format in all cases: functional
[1] = biological target: T1, Apoptotic protease-activating factor 1 (Homo sapiens, UniProt O14727)
T1 sequence (O14727 whole entry): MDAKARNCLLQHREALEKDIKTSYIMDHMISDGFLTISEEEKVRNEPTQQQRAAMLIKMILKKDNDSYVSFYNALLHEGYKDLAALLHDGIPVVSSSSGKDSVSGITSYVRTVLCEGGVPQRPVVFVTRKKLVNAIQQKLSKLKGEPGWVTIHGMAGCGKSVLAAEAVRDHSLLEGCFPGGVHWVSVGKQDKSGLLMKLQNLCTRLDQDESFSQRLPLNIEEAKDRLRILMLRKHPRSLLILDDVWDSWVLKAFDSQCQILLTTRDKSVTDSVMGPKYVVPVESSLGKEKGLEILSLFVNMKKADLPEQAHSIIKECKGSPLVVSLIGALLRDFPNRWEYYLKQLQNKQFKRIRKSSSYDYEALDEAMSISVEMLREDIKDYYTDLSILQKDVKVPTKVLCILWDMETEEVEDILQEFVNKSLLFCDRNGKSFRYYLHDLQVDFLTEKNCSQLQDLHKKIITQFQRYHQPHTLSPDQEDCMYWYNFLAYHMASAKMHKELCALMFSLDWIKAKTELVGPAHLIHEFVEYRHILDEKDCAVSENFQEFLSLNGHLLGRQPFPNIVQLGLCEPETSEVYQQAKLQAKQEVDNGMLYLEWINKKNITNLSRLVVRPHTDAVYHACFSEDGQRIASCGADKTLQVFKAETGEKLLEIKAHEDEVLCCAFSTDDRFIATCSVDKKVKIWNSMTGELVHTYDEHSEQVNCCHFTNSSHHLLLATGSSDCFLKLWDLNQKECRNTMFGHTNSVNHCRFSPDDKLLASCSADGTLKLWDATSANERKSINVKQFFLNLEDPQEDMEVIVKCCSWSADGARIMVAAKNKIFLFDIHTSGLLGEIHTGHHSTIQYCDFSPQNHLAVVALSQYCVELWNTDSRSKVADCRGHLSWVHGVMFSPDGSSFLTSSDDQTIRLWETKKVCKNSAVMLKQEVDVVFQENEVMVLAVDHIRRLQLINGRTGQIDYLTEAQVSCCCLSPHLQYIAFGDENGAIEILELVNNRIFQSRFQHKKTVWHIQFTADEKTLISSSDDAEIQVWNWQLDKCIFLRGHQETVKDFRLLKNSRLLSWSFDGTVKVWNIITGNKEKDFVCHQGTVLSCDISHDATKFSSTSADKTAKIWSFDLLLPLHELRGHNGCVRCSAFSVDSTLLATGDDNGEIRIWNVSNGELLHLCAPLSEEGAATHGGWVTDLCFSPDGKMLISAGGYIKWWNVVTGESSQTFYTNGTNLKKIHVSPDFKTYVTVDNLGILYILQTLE

[2] = biological target: Genome polyprotein (dengue virus type 2, UniProt P29990); assay: flavivirus cap methylation enzyme inhibition – biochemical, confirmation dose response, primary screen (AID 588689)
[3] = biological target: T2, Replicative DNA helicase DnaB (Mycobacterium tuberculosis, UniProt P9WMR3); assay: DnaB intein splicing inhibitors, dose response, biochemical, cell-free fluorescence (AID 449749)
T2 sequence (P9WMR3 whole entry): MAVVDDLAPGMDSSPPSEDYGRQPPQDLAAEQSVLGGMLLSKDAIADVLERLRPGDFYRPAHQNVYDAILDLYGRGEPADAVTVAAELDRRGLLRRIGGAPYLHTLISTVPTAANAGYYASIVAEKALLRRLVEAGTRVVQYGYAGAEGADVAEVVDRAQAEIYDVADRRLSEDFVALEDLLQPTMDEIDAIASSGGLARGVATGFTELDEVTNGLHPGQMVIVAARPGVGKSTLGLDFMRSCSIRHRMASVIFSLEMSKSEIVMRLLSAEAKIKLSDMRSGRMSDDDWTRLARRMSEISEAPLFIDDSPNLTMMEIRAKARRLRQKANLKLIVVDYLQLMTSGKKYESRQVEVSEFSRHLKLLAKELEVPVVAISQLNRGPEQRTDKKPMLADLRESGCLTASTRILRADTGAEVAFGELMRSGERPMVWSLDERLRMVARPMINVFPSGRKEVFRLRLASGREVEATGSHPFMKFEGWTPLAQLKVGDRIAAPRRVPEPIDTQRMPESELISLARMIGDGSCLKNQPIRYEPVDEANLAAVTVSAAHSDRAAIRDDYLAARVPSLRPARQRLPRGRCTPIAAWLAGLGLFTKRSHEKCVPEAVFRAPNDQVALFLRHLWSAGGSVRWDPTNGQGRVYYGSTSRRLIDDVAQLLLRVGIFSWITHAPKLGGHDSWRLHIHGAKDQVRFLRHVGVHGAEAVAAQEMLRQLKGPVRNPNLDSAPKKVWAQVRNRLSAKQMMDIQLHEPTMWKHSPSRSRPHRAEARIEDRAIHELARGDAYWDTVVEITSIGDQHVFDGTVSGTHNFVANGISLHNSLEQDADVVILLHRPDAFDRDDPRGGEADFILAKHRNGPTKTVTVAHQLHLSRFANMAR

[4] = biological target: T3, Protein RecA (Mycobacterium tuberculosis, UniProt P9WHJ3); assay: Fluorescence Cell-Free Homogeneous Dose Retest to Identify Inhibitors of RecA-Intein Splicing Activity. [Related pubchem assays (depositor defined):AID2097, AID2223, AID489010, AID492950]
T3 sequence (P9WHJ3 whole entry): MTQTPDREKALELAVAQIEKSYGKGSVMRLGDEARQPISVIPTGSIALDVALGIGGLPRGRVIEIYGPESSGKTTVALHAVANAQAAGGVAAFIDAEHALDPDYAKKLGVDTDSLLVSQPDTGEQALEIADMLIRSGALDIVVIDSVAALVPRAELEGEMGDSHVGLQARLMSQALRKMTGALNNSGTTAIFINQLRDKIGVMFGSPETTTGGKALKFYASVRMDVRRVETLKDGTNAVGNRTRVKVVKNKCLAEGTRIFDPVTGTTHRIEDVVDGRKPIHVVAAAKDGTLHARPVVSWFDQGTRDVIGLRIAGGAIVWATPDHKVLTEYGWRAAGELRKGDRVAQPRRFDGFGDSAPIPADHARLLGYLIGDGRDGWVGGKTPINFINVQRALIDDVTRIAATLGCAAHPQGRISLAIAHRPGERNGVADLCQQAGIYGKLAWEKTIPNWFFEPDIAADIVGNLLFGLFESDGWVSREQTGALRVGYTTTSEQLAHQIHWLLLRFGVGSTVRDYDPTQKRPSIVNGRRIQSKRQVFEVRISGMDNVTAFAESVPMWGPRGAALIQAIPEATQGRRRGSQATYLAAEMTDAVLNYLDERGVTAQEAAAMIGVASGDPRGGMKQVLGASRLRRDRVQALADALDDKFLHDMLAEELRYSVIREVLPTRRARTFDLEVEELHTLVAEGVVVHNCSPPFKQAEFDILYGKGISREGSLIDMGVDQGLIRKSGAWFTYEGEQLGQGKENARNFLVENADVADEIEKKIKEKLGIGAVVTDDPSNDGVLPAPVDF

Sequence of Genome polyprotein (P29990 2492-3391 limits assumed): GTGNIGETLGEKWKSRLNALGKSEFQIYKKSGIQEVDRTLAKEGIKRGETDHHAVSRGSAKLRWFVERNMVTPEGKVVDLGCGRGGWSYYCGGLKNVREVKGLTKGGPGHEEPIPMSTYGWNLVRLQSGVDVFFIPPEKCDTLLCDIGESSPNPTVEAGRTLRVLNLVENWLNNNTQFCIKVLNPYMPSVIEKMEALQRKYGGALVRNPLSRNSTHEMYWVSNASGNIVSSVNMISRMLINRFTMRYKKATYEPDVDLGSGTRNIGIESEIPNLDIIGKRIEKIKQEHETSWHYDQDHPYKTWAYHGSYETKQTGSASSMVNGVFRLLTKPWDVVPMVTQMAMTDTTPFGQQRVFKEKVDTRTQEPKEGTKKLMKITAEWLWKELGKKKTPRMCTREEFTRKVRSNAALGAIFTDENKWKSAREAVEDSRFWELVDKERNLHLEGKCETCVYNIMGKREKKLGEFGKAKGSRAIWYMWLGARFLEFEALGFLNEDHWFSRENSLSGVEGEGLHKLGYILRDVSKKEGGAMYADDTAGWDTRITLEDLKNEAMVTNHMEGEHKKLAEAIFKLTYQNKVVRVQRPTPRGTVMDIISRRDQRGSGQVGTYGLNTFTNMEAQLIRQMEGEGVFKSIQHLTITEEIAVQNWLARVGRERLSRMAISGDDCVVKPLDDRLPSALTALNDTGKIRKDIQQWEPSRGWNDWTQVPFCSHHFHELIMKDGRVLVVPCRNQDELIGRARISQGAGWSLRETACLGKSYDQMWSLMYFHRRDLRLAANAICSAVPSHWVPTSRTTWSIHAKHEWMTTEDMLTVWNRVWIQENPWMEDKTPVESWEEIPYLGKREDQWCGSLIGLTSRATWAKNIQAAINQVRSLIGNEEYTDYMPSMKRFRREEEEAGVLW

Compound	IC50 [1]	IC50 [2]	AC50 [3]	EC50 [4]
COc1cc(-c2ccc(Nc3ccccc3C(=O)O)c(OC)c2)ccc1Nc1ccccc1C(=O)O	26.7 µM (active)	18.8 µM (active)		
COC(CNC(=O)c1ccc2c3c(onc13)-c1ccccc1C2=O)OC	25.2 µM (active)	4.67 µM (active)	3.06 µM (active)	5.99 µM (active)
Cc1ccc2nc(/C(C#N)=C\c3ccc([N+](=O)[O-])o3)[nH]c2c1				0.454 µM (active)
COc1ccc(OC)c(Nc2cc3ccccc3c(O)n2)c1	2.5 µM (active)		> 120 µM (inconclusive)	1.34 µM (active)
O=C(O)c1ccc(NC2=C/C(=N/S(=O)(=O)c3ccccc3)c3ccccc3C2=O)cc1	3.15 µM (active)	17.1 µM (active)		
Nc1ccc2c(c1)C(=O)C(=O)c1ccccc1-2	0.768 µM (active)		5.32 µM (active)	6.36 µM (active)
